# Results from PubChem BioAssay (NCI).
#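 Method: 48-hour compound exposure of cells in 96-well plates, five concentrations, linear interpolation of endpoints. GI50: concentration for 50% inhibition of growth. Definition used: TGI = concentration required for complete inhibition of growth.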
# How the values were obtained:
# Experiment in all cases: growth of human tumour cells (NCI), 48 h
# [1] = test system: KM12 colon
# [2] = test system: CCRF-CEM leukemia
# [3] = test system: NCI-H226 lung
# [4] = test system: SK-MEL-5 melanoma
# [5] = test system: UACC-62 melanoma
# [6] = test system: SF-268 CNS
# [7] = test system: MOLT-4 leukemia
# [8] = test system: SK-MEL-28 melanoma
# [9] = test system: HCT-15 colon
# [10] = test system: OVCAR-4 ovarian
# [11] = test system: RXF 393 renal
# [12] = test system: M14 melanoma
# [13] = test system: OVCAR-8 ovarian
# [14] = test system: OVCAR-5 ovarian
# [15] = test system: UO-31 renal
# [16] = test system: HOP-92 NSCLC
# [17] = test system: A549 NSCLC
# [18] = test system: MALME-3M melanoma
# [19] = test system: HS 578T breast
# [20] = test system: SR leukemia
# [21] = test system: NCI/ADR-RES ovarian
# [22] = test system: HT29 colon
# [23] = test system: MCF7 breast
# [24] = test system: SF-295 CNS
# [25] = test system: LOX IMVI melanoma
# [26] = test system: K-562 leukemia
# [27] = test system: CAKI-1 renal
smiles,measurement,setting,value
NCCOCCOCCNc1nc(-c2ccccc2)nc(N2CCN(c3ccccn3)CC2)n1,TGI,[1],31 µM
same,GI50,[2],14.3 µM
same,TGI,[2],33.2 µM
same,GI50,[3],17.1 µM
same,TGI,[3],32.3 µM
same,GI50,[4],8.37 µM
same,TGI,[4],20.9 µM
same,GI50,[5],6.76 µM
same,TGI,[5],19.4 µM
same,GI50,[6],15.9 µM
same,TGI,[6],30.8 µM
same,GI50,[7],12.8 µM
same,TGI,[7],29.4 µM
same,GI50,[8],3.9 µM
same,TGI,[8],13.8 µM
same,GI50,[9],13.1 µM
same,TGI,[9],27.9 µM
same,GI50,[10],13.4 µM
same,TGI,[10],26.3 µM
same,GI50,[11],10.1 µM
same,TGI,[11],22.8 µM
same,GI50,[12],2.16 µM
same,TGI,[12],5.31 µM
same,GI50,[13],15.8 µM
same,TGI,[13],34.5 µM
same,GI50,[14],16.1 µM
same,TGI,[14],30.4 µM
same,GI50,[15],12.7 µM
same,TGI,[15],25.8 µM
same,GI50,[16],1.84 µM
same,TGI,[16],11.1 µM
same,GI50,[17],14.4 µM
same,TGI,[17],30.1 µM
same,GI50,[18],11.3 µM
same,TGI,[18],26.2 µM
same,GI50,[19],15.4 µM
same,TGI,[19],41 µM
same,GI50,[20],1.62 µM
same,TGI,[20],4.64 µM
same,GI50,[21],16 µM
same,TGI,[21],32.4 µM
same,GI50,[22],4.55 µM
same,TGI,[22],17.6 µM
same,GI50,[23],12.5 µM
same,TGI,[23],32.2 µM
same,GI50,[24],17.5 µM
same,TGI,[24],36 µM
same,GI50,[25],8.3 µM
same,TGI,[25],21.3 µM
same,GI50,[26],7.87 µM
same,TGI,[26],22.9 µM
same,GI50,[27],15.9 µM
same,TGI,[27],31.5 µM
